Results as given in patent US6503449B1, “Process for the control of microbial contamination in water-based solids suspensions” (Ciba Specialty Chemicals Corporation, priority 1998, dated 2003).

Columns and labels:
Format in all cases: cell-based
[1] = test system: Xanthomonas maltophilia and Pseudomonas mendocina; test: Sonication of Pigment Red 53.1 dispersion with biocide, bacterial contamination check
Excerpt: A mixture of Pigment Red 23, available from Ciba Specialty Chemicals(UK) Ltd., 215.5 parts, Emulan OG (RTM) (35% solution in water), available from BASF, 153.7 parts, tributyl phosphate, available from Albright & Wilson, 2 parts, and water, 128.8 parts, are dispersed by re-circulation through a Bachofen KDL200 bead-mill until colouristic properties are within specification of UNISPERSE (RTM) Red RBS-PI, available from Ciba Specialty Chemicals(UK) Ltd., and adjusted to pH 8.0-8.5 with 20% sodium hydroxide solution. This material is identified as containing the Gram negative bacterium, Pseudomonas putida. 50 millilitre aliquots of this dispersion containing levels of glutaraldehyde (pentane-1,5-dialdehyde), available as the trade product Protectol GDA form BASF or Ucarcide from Union Carbide, between 0 parts per million (ppm) and 2000 ppm are sonicated using a Branson MSE sonicator with a 19 mm horn probe resonating at 20 kHz with an amplitude of 6 microns. Sonication is undertaken in a 100 millilitre glass beaker, diameter 38 mm, with magnetic flea agitator and cooled in a water/ice bath to maintain temperature at 28-32° C. Bacterial growth in each sample is assessed at 5 minute intervals by streaking each dispersion on to Nutrient Agar(NA) plates and incubating the plates for a minimum of 48 hours at 30° C. The plates are then examined for bacterial colonies and expressed according to the following notation:
A mixture of Pigment Red 53.1, available from S&D Chemicals Ltd., 37 parts, Emulan OG (35% solution), 25.9 parts, 2-ethylhexanoic acid, available from Barratt Chemicals Ltd., 3 parts tributyl phosphate, 0.3 parts, and water 31.74 parts are dispersed by a single pass through a Bachofen KDL Special beadmill containing 1.0 mm Yttrium-stabilised Zirconium Oxide beads. This material is identified as containing the Gram negative bacteria, Xanthomonas maltophilia and Pseudomonas mendocina. 50 millilitre aliquots of this dispersion are treated with pentane-1,5-dialdehyde (Ucarcide 250) and CIT/MIT mixture (Acticide LG) according to the process defined in Example 1 and each sample checked for bacterial contamination according to the following table: […]

Gram positive organisms = test: Single/multiple pass through 2406 Nearfield Accoustical Processor with biocide, Nutrient Agar plates; conditions: 250 ppm; after four passes through the sonicator, 16 kHz and 20 kHz, 750 kg/hr; initial count 4.8×10^6 cfu per millilitre
Excerpt: (§1) A mixture of Pigment Red 23,215.5 parts, Emulan OG (RTM) (35% solution in water), 153.7 parts, tributyl phosphate, 2 parts, and water, 128.8 parts are dispersed by re-circulation through a Bachofen KDL200 bead-mill until colouristic properties are within specification of UNISPERSE (RTM) Red RBS-PI as detailed in Example 1 and adjusted to pH 8.0-8.5 with 20% sodium hydroxide solution. This material is identified as having a bacterial count of 4.8×10^6 colony-forming units (cfu) per millilitre comprised of a mixture of Gram positive and Gram negative bacteria. It is treated with 250 parts per million(ppm) of pentane 1,5-dialdehyde and pumped through a 2406 Nearfield Accoustical Processor sonicating at 16 kHz and 20 kHz respectively with a plate separation of 6 mm (approximately) at a flow rate of 750 kg/hr. Assessment bacterial activity is then done by spreading a sample of the pigment dispersion on Nutrient Agar(NA) plates and incubating at 30° C. for 48 hours. […] The temperature rise is 1° C. per pass, from a starting value of 20° C.

Gram negative organisms = test: as above; conditions: 250 ppm; after one pass through the sonicator, 16 kHz and 20 kHz, 750 kg/hr; initial count 4.8×10^6 cfu per millilitre
Excerpt: as §1

O=CCCCC=O [glutaraldehyde, pentane-1,5-dialdehyde]
bacterial contamination ([1]; 500 ppm Ucarcide 250, 3 days after sonication): +++ (heavy contamination(>10^5 cfu/ml))
bacterial contamination ([1]; 500 ppm Ucarcide 250, 7 days after sonication): +++ (heavy contamination(>10^5 cfu/ml))
bacterial contamination ([1]; 500 ppm Ucarcide 250, 14 days after sonication): +++ (heavy contamination(>10^5 cfu/ml))
bacterial contamination ([1]; 500 ppm Ucarcide 250, 28 days after sonication): +++ (heavy contamination(>10^5 cfu/ml))
bacterial contamination ([1]; 500 ppm Ucarcide 250, 90 days after sonication): +++ (heavy contamination(>10^5 cfu/ml))
bacterial contamination ([1]; 500 ppm Ucarcide 250, sonicated 0 mins.): +++ (heavy contamination(>10^5 cfu/ml))
bacterial contamination ([1]; 500 ppm Ucarcide 250, sonicated 5 mins.): +++ (heavy contamination(>10^5 cfu/ml))
bacterial contamination ([1]; 500 ppm Ucarcide 250, sonicated 10 mins.): +++ (heavy contamination(>10^5 cfu/ml))
bacterial contamination ([1]; 500 ppm Ucarcide 250, sonicated 15 mins.): +++ (heavy contamination(>10^5 cfu/ml))
bacterial contamination ([1]; 500 ppm Ucarcide 250, sonicated 20 mins.): +++ (heavy contamination(>10^5 cfu/ml))
bacterial contamination ([1]; 500 ppm Ucarcide 250, sonicated 25 mins.): +++ (heavy contamination(>10^5 cfu/ml))
bacterial contamination ([1]; 500 ppm Ucarcide 250, sonicated 30 mins.): ++ (moderate contamination(10^3-10^5 cfu/ml))
bacterial contamination ([1]; 500 ppm Ucarcide 250, sonicated 35 mins.): ++ (moderate contamination(10^3-10^5 cfu/ml))
bacterial contamination ([1]; 500 ppm Ucarcide 250, sonicated 40 mins.): ++ (moderate contamination(10^3-10^5 cfu/ml))
bacterial contamination ([1]; 500 ppm Ucarcide 250, sonicated 45 mins.): ++ (moderate contamination(10^3-10^5 cfu/ml))
bacterial contamination ([1]; 500 ppm Ucarcide 250, sonicated 50 mins.): ++ (moderate contamination(10^3-10^5 cfu/ml))
bacterial contamination ([1]; 500 ppm Ucarcide 250, sonicated 55 mins.): + (light contamination (10^0 and 10^3 cfu/ml))
bacterial contamination ([1]; 500 ppm Ucarcide 250, sonicated 60 mins.): + (light contamination (10^0 and 10^3 cfu/ml))
bacterial contamination ([1]; 750 ppm Ucarcide 250, 3 days after sonication): +++ (heavy contamination(>10^5 cfu/ml))
bacterial contamination ([1]; 750 ppm Ucarcide 250, 7 days after sonication): +++ (heavy contamination(>10^5 cfu/ml))
bacterial contamination ([1]; 750 ppm Ucarcide 250, 14 days after sonication): +++ (heavy contamination(>10^5 cfu/ml))
bacterial contamination ([1]; 750 ppm Ucarcide 250, 28 days after sonication): +++ (heavy contamination(>10^5 cfu/ml))
bacterial contamination ([1]; 750 ppm Ucarcide 250, 90 days after sonication): +++ (heavy contamination(>10^5 cfu/ml))
bacterial contamination ([1]; 750 ppm Ucarcide 250, sonicated 0 mins.): +++ (heavy contamination(>10^5 cfu/ml))
bacterial contamination ([1]; 750 ppm Ucarcide 250, sonicated 5 mins.): +++ (heavy contamination(>10^5 cfu/ml))
bacterial contamination ([1]; 750 ppm Ucarcide 250, sonicated 10 mins.): +++ (heavy contamination(>10^5 cfu/ml))
bacterial contamination ([1]; 750 ppm Ucarcide 250, sonicated 15 mins.): +++ (heavy contamination(>10^5 cfu/ml))
bacterial contamination ([1]; 750 ppm Ucarcide 250, sonicated 20 mins.): +++ (heavy contamination(>10^5 cfu/ml))
bacterial contamination ([1]; 750 ppm Ucarcide 250, sonicated 25 mins.): +++ (heavy contamination(>10^5 cfu/ml))
bacterial contamination ([1]; 750 ppm Ucarcide 250, sonicated 30 mins.): ++ (moderate contamination(10^3-10^5 cfu/ml))
bacterial contamination ([1]; 750 ppm Ucarcide 250, sonicated 35 mins.): ++ (moderate contamination(10^3-10^5 cfu/ml))
bacterial contamination ([1]; 750 ppm Ucarcide 250, sonicated 40 mins.): ++ (moderate contamination(10^3-10^5 cfu/ml))
bacterial contamination ([1]; 750 ppm Ucarcide 250, sonicated 45 mins.): ++ (moderate contamination(10^3-10^5 cfu/ml))
bacterial contamination ([1]; 750 ppm Ucarcide 250, sonicated 50 mins.): + (light contamination (10^0 and 10^3 cfu/ml))
bacterial contamination ([1]; 750 ppm Ucarcide 250, sonicated 55 mins.): + (light contamination (10^0 and 10^3 cfu/ml))
bacterial contamination ([1]; 750 ppm Ucarcide 250, sonicated 60 mins.): + (light contamination (10^0 and 10^3 cfu/ml))
bacterial contamination ([1]; 1000 ppm Ucarcide 250, 3 days after sonication): +++ (heavy contamination(>10^5 cfu/ml))
bacterial contamination ([1]; 1000 ppm Ucarcide 250, 7 days after sonication): +++ (heavy contamination(>10^5 cfu/ml))
bacterial contamination ([1]; 1000 ppm Ucarcide 250, 14 days after sonication): +++ (heavy contamination(>10^5 cfu/ml))
bacterial contamination ([1]; 1000 ppm Ucarcide 250, 28 days after sonication): +++ (heavy contamination(>10^5 cfu/ml))
bacterial contamination ([1]; 1000 ppm Ucarcide 250, 90 days after sonication): +++ (heavy contamination(>10^5 cfu/ml))
bacterial contamination ([1]; 1000 ppm Ucarcide 250, sonicated 0 mins.): +++ (heavy contamination(>10^5 cfu/ml))
bacterial contamination ([1]; 1000 ppm Ucarcide 250, sonicated 5 mins.): +++ (heavy contamination(>10^5 cfu/ml))
bacterial contamination ([1]; 1000 ppm Ucarcide 250, sonicated 10 mins.): +++ (heavy contamination(>10^5 cfu/ml))
bacterial contamination ([1]; 1000 ppm Ucarcide 250, sonicated 15 mins.): +++ (heavy contamination(>10^5 cfu/ml))
bacterial contamination ([1]; 1000 ppm Ucarcide 250, sonicated 20 mins.): ++ (moderate contamination(10^3-10^5 cfu/ml))
bacterial contamination ([1]; 1000 ppm Ucarcide 250, sonicated 25 mins.): ++ (moderate contamination(10^3-10^5 cfu/ml))
bacterial contamination ([1]; 1000 ppm Ucarcide 250, sonicated 30 mins.): + (light contamination (10^0 and 10^3 cfu/ml))
bacterial contamination ([1]; 1000 ppm Ucarcide 250, sonicated 35 mins.): + (light contamination (10^0 and 10^3 cfu/ml))
bacterial contamination ([1]; 1000 ppm Ucarcide 250, sonicated 40 mins.): + (light contamination (10^0 and 10^3 cfu/ml))
bacterial contamination ([1]; 1000 ppm Ucarcide 250, sonicated 45 mins.): + (light contamination (10^0 and 10^3 cfu/ml))
bacterial contamination ([1]; 1000 ppm Ucarcide 250, sonicated 50 mins.): + (light contamination (10^0 and 10^3 cfu/ml))
bacterial contamination ([1]; 1000 ppm Ucarcide 250, sonicated 55 mins.): + (light contamination (10^0 and 10^3 cfu/ml))
bacterial contamination ([1]; 1000 ppm Ucarcide 250, sonicated 60 mins.): + (light contamination (10^0 and 10^3 cfu/ml))
bacterial contamination ([1]; 1500 ppm Ucarcide 250, 3 days after sonication): +++ (heavy contamination(>10^5 cfu/ml))
bacterial contamination ([1]; 1500 ppm Ucarcide 250, 7 days after sonication): +++ (heavy contamination(>10^5 cfu/ml))
bacterial contamination ([1]; 1500 ppm Ucarcide 250, 14 days after sonication): +++ (heavy contamination(>10^5 cfu/ml))
bacterial contamination ([1]; 1500 ppm Ucarcide 250, 28 days after sonication): +++ (heavy contamination(>10^5 cfu/ml))
bacterial contamination ([1]; 1500 ppm Ucarcide 250, 90 days after sonication): +++ (heavy contamination(>10^5 cfu/ml))
bacterial contamination ([1]; 1500 ppm Ucarcide 250, sonicated 0 mins.): +++ (heavy contamination(>10^5 cfu/ml))
bacterial contamination ([1]; 1500 ppm Ucarcide 250, sonicated 5 mins.): +++ (heavy contamination(>10^5 cfu/ml))
bacterial contamination ([1]; 1500 ppm Ucarcide 250, sonicated 10 mins.): +++ (heavy contamination(>10^5 cfu/ml))
bacterial contamination ([1]; 1500 ppm Ucarcide 250, sonicated 15 mins.): +++ (heavy contamination(>10^5 cfu/ml))
bacterial contamination ([1]; 1500 ppm Ucarcide 250, sonicated 20 mins.): ++ (moderate contamination(10^3-10^5 cfu/ml))
bacterial contamination ([1]; 1500 ppm Ucarcide 250, sonicated 25 mins.): + (light contamination (10^0 and 10^3 cfu/ml))
bacterial contamination ([1]; 1500 ppm Ucarcide 250, sonicated 30 mins.): + (light contamination (10^0 and 10^3 cfu/ml))
bacterial contamination ([1]; 1500 ppm Ucarcide 250, sonicated 35 mins.): + (light contamination (10^0 and 10^3 cfu/ml))
bacterial contamination ([1]; 1500 ppm Ucarcide 250, sonicated 40 mins.): + (light contamination (10^0 and 10^3 cfu/ml))
bacterial contamination ([1]; 1500 ppm Ucarcide 250, sonicated 45 mins.): + (light contamination (10^0 and 10^3 cfu/ml))
bacterial contamination ([1]; 1500 ppm Ucarcide 250, sonicated 50 mins.): + (light contamination (10^0 and 10^3 cfu/ml))
bacterial contamination ([1]; 1500 ppm Ucarcide 250, sonicated 55 mins.): + (light contamination (10^0 and 10^3 cfu/ml))
bacterial contamination ([1]; 1500 ppm Ucarcide 250, sonicated 60 mins.): + (light contamination (10^0 and 10^3 cfu/ml))
bacterial activity on Nutrient Agar plates, Gram positive organisms (Gram positive organisms): no Gram positive organisms are found
bacterial activity on Nutrient Agar plates, Gram negative organisms (Gram negative organisms): no Gram negative organisms are evident
